{"source": "patent US20110229482A1", "about": "“Method of inhibiting infection by HCV, other flaviviridae viruses, and any other virus that complexes to low density lipoprotein or to very low density lipoprotein in blood by preventing viral entry into a cell” (priority 2000, published 2011)", "key": {"[1]": {"test_system": "HCV", "format": "in vivo, mouse"}, "[2]": {"test_system": "HCV", "format": "cell-based, hepatitis C virus", "design": "key to Endocytosis of 1 × 10^6 gE HCV from each fraction intensity of staining: ++: Moderately positive; +: Weakly positive"}, "[3]": {"test_system": "LDL receptor", "assay": "LDL receptor expression in liver sections of hLDLR Tg mice, fluorescence staining", "format": "in vivo", "details": "Tg mouse pretreated with 0.5 mg, then inoculated with HCV"}, "[4]": {"molecular_target": "T1, LDL receptor (Homo sapiens, UniProt P01130)", "T1 construct": "endogenous in cells; host or cells: G4 B-lymphocyte line (human-mouse heterohybridoma fused with patient B cells), HepG2 hepatoma cells", "T1 sequence (P01130 22-860)": "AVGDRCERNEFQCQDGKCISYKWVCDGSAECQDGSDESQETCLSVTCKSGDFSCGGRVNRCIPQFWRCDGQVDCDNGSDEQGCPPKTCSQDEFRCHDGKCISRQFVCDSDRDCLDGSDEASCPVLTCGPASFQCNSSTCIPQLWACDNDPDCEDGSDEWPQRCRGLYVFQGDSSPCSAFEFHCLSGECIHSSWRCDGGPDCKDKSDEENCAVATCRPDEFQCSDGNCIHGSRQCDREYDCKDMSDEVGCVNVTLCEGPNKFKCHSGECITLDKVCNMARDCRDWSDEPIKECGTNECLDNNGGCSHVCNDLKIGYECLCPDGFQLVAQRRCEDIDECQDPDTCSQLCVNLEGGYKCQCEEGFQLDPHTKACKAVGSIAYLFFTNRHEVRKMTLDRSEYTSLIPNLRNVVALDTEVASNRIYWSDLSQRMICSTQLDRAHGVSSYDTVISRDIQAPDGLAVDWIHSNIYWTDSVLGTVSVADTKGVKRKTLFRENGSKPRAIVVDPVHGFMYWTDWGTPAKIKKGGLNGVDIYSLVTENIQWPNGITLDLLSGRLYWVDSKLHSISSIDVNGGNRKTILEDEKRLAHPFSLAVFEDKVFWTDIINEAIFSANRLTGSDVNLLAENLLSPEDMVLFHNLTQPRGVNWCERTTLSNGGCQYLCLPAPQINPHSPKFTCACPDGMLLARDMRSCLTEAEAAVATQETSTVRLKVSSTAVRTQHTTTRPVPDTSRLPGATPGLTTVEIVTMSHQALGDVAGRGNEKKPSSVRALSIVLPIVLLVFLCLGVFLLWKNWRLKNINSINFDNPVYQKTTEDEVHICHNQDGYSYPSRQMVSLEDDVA", "assay": "DiI-LDL endocytosis (uptake) by cultured cells, flow cytometry / fluorescence microscopy", "format": "cell-based", "details": "for Mean fluorescence: DiI-LDL treatment", "method": "LDL Receptor Assays: Cells were cultured in Roswell Park Memorial Institute (RPMI) medium supplemented either with 10% BVDV-free bovine calf serum or with RPMI medium supplemented with 10% lipoprotein-deficient BVDV-free medium to upregulate expression of the LDL receptor. The cells were then washed twice with phosphate-buffered saline (PBS), pH 7.2. Cytospin preparations were made, fixed with acetone, blocked with 5% normal mouse serum, and the LDL receptor visualized by incubating the slides with 5 μg/ml purified IgG 2a monoclonal anti-LDL receptor antibody followed by a 1:50 dilution of fluorescein (FITC)-labeled goat anti-mouse [F(ab)′2] second antibody (Jackson Immunoresearch, West Grove, Pa.).\nThe cells were washed twice with cold PBS and fixed with 1% buffered paraformaldehyde, and cytospin preparations were made for fluorescent microscopic studies or cells in suspension were analyzed by flow cytometry. Flow cytometric analysis was performed using the Epic XL-MCL cytometer (Coulter Corp., Miami, Fla.) using a 575 BP filter. Nonspecific binding of DiI-LDL was determined using DiI-LDL treated with cyclohexanedione and was subtracted from the DiI-LDL binding to give specific DiI-LDL binding to cultured cells."}, "[5]": {"details": "density gradient fractions of HCV serum, ISH"}}, "note": "Where two headings read alike, the source gives them in different places."}
{"molecule": "5^th repeat peptide: 39 amino acid 5th repeat of the ligand binding domain of the LDL receptor, amino acids 193-231 of SEQ ID NO:1", "values": [{"measurement": "Inhibition of endocytosis of HCV by hepatocytes", "setting": "[1]; hLDLR Tg mouse, 1 mg one hour prior to intraperitoneal HCV (5.0×10^6 gE)", "value": "completely inhibits"}]}
{"molecule": "O=C(O)CN(CCOCCOCCN(CC(=O)O)CC(=O)O)CC(=O)O", "note": "[EGTA, ethylene glycol bis(β-aminoethyl ether)-N,N,N′,N′-tetraacetic acid]", "values": [{"measurement": "Inhibition of endocytosis of HCV", "setting": "[2]", "value": "inhibited"}]}
{"molecule": "CC(C)c1c(C(=O)Nc2ccccc2)c(-c2ccccc2)c(-c2ccc(F)cc2)n1CC[C@@H](O)C[C@@H](O)CC(=O)O", "note": "[atorvastatin]", "values": [{"measurement": "Quantitative HCV of the liver", "setting": "[1]; Tg mouse pretreated with 0.5 mg, control mouse 43", "value": 163, "unit": "HCV gE per mg liver"}, {"measurement": "Modulation of LDL receptor (fluorescence staining)", "setting": "[3]", "value": "upregulation of the LDL receptor"}]}
{"molecule": "DiI-LDL: LDL labeled with 1,1′-dioctadecyl-3,3,3′,3′-tetramethylindocarbocyanine iodine (DiI)", "values": [{"measurement": "Mean fluorescence", "setting": "[4]; G4 cells, lipoprotein deficient medium (upregulated LDL receptor)", "value": "16 ± 7"}, {"measurement": "Mean fluorescence", "setting": "[4]; G4 cells, routine culture medium (RPMI with 10% fetal bovine serum)", "value": "4 ± 2.0"}, {"measurement": "Mean fluorescence", "setting": "[4]; HepG2 cells, routine culture medium", "value": "16 ± 5"}]}
{"molecule": "LDL: low density lipoprotein, d=1.019-1.063 g/ml, from normal sera or purchased from Cortex", "values": [{"measurement": "Endocytosis of 5 μg DiI-labeled fraction mean fluorescence (log scale)", "setting": "[4]; density gradient fractions of HCV serum", "value": 9.98}, {"measurement": "Inhibition of uptake of DiI-LDL", "setting": "[4]; upregulated G4 cells, 5 μg DiI-LDL, excess unlabeled LDL", "value": "completely inhibited"}, {"measurement": "Restoration of endocytosis of \"free\" HCV", "setting": "[2]", "value": "restoration of endocytosis"}, {"measurement": "Inhibition of endocytosis of HCV (competitive)", "setting": "[2]; HepG2 or B cells (G4 and E11), 25-100 μg/ml", "value": "completely inhibited"}, {"measurement": "Endocytosis of 1 × 10^6 gE HCV from each fraction % cell positive", "setting": "[2]; [5]", "value": 75, "unit": "%"}, {"measurement": "Endocytosis of 1 × 10^6 gE HCV from each fraction intensity of staining", "setting": "[2]; [5]", "value": "+"}]}
{"molecule": "heparin sulfate", "values": [{"measurement": "Inhibition of endocytosis of HCV", "setting": "[2]; 25 units/ml", "value": "inhibited"}]}
{"molecule": "soluble LDL receptor: soluble LDL receptor (SEQ ID NO:1)", "values": [{"measurement": "Inhibition of endocytosis of HCV", "setting": "[2]; Daudi cells, pretreatment 30 minutes at 37° C., HCV 2 hours at 37° C.", "value": "completely inhibits"}]}
